Series [1] concerns bovine aorta smooth muscle cells. In words: Transfection inhibition assay with free AWBP. It is filed as cell-based. The conditions noted are these: free AWBP 31.25 μM to 500 μM. The protocol:
(§1) (Transfectioninhibition assay). Bovine aorta endothelial cells (5×10^5/well) and smooth muscle cells (2×10^5/well) were seeded in 24-well plates 1 day prior to transfection with 70 to 80% confluence. The AWBP-PEG-g-PLL/pCMV-Luc complexes were freshly prepared in PBS buffer for the transfection with a fixed amount of plasmid DNA (2 μg/well) and AWBP-PEG-g-PLL (4 μg/well). After addition of various amounts of free artery wall binding peptide (range from 31.3 μM to 1.0 mM) for 20 minutes at 4° C., 100 μl AWBP-PEG-g-PLL/pCMV-Luc solution was added to the cells. All the other conditions were the same as described above for the transfection assay.
(§2) (Gene expression assay) Transgene expression was evaluated by luciferase activity of cell lysates from transfected bovine aorta endothelial cells and smooth muscle cells. Measurement of luciferase activity was performed according to the manufacturer's instruction (Luciferase Assay System, Promega, Madison, Wis.). Briefly, the transfected cells were lysed with 1× lysis buffer (1% Triton X-100), 100 mM KPO4, 2 mM dithiothreitol, 10% glycerol, and 2 mM EDTA, pH 7.8) for 15 minutes at room temperature. […] Light emission was measured in triplicate over 10 s and expressed as relative light units (RLUs). RLUs were normalized from the protein content of each sample, which was determined by BCA protein assay.

The subject of series [2] is bovine aorta endothelial cells. In words: Transfection inhibition assay with free AWBP. The conditions noted are these: free AWBP 31.25 μM to 500 μM. It is filed as cell-based. Here is the method:
as §1, §2

The test system of series [3] is DNase I. In words: DNase protection assay. The note with it: 37° C.; charge ratio 2/1 (+/−); 10 times excess of DNase I; FIG. 3B. The protocol:
AWBP-PEG-g-PLL/pDNA complexes were prepared at the charge ratios of 2/1 (+/−) and incubated in the presence of 10 times excess of DNase I. At 0, 5, 10, 15, 20, 60, and 120 minutes after incubation, 50 μl of the sample was transferred into another tube and mixed with 100 μl of stop solution (400 mM NaCl and 100 mM EDTA) using mild agitation with a vortexer. The sample was then mixed with 12 μl of 10% (w/v) sodium dodecyl sulfate (SDS) and incubated at 65° C. overnight. DNA was extracted with the mixture of Tris-EDTA saturated phenol:chloroform:isoamyl alcohol (25:24:1, v/v). The extracted DNA was precipitated with 700 μl of absolute ethanol at 12,000 rpm for 30 minutes and washed with 70% ethanol. The DNA precipitate was air-dried and then dissolved in 10 μl TE buffer. The plasmid integrity was assessed by electrophoresis in a 1% agarose gel.

Series [4] relates to bovine aorta smooth muscle cells. The series can be described thus: Transfection assay (luciferase gene expression). Format: cell-based. Here is the method:
(§3) Gene expression. (Transfection assay) Primary bovine aorta endothelial cells and smooth muscle cells were prepared, cultured, characterized, and identified as described in L. Yu et al., supra. Bovine aorta endothelial cells (5×10^5/well) and smooth muscle cells (2×10^5/well) were seeded in 24-well plates with 1 ml Dulbecco's modified Eagle medium (DMEM, Hyclone Laboratories, Logan, Utah) containing 10% fetal bovine serum (FBS, Hyclone Laboratories) and incubated for 24 hours to 70-80% confluency. The AWBP-PEG-g-PLL/pCMV-Luc complexes were freshly prepared in PBS for the transfection with fixed amount of plasmid DNA (2 μg/well) and various amounts of AWBP-PEG-g-PLL. After incubation of complexes for 30 minutes at room temperature, 100 μl of complex solution was added to the cells and then incubated for 3 hours at 37° C. in 5% CO2 atmosphere. After replacement of media, the cells were incubated for 40 hours under the same conditions. The cells were washed three times with PBS buffer and made ready for the reporter gene expression assay.
(§4) (Gene expression assay) Transgene expression was evaluated by luciferase activity of cell lysates from transfected bovine aorta endothelial cells and smooth muscle cells. Measurement of luciferase activity was performed according to the manufacturer's instruction (Luciferase Assay System, Promega, Madison, Wis.). Briefly, the transfected cells were lysed with 1× lysis buffer (1% Triton X-100), 100 mM KPO4, 2 mM dithiothreitol, 10% glycerol, and 2 mM EDTA, pH 7.8) for 15 minutes at room temperature. To measure the luciferase activity, 20 μl aliquot of cell lysate was mixed with 50 μl of luciferase assay reagent at room temperature and inserted in the luminometer. Light emission was measured in triplicate over 10 s and expressed as relative light units (RLUs). RLUs were normalized from the protein content of each sample, which was determined by BCA protein assay.

In series [5] the test system is bovine aorta endothelial cells. The series can be described thus: Transfection assay (luciferase gene expression). Format: cell-based. The protocol:
as §3, §4

Where no end group is shown, it is not given here.

“AWBP: synthetic peptide based on arterial binding domain of apo B-100 (residues 1000-1016) with cysteine added to amino-terminus (CGRALVDTLKFVTQAEGAK; listed as Homo sapiens)”: the “effect of free AWBP on gene transfer by AWBP-PEG-g-PLL/pDNA complexes” value in series [1] and in series [2] was “significantly inhibit” throughout.

For “AWBP-PEG-g-PLL: artery wall binding peptide (SEQ ID NO:2) conjugated to poly(ethylene glycol)-grafted-poly(L-lysine), about 4 mol AWBP per mole (CGRALVDTLKFVTQAEGAK; also: conjugated to PEG-grafted poly(L-lysine), about 4 mol peptide per mole, site not given here; listed as Homo sapiens)”, the “time for which pDNA is protected from digestion with DNase” value in series [3] is on record as “at least 2 hours”. Also, the “luciferase activity of cell lysate” value in series [4] (ratio carrier to plasmid DNA from 1.5:1 to 2:1, FIG. 6B) is “significantly increased”; in series [4] (ratio carrier to plasmid DNA from 2:1 to 5:1, FIG. 6B), “remained constant”; in series [5] (ratio carrier to plasmid DNA from 1.5:1 to 2:1, FIG. 6A), “significantly increased”; in series [5] (ratio carrier to plasmid DNA from 2:1 to 5:1, FIG. 6A) it was “remained constant”.
